In patent publication US6153611A, “Piperazinyl-cyclohexanes and cyclohexenes” (Bristol-Myers Squibb Company, priority 1993, dated 2000):
Where two headings read alike, the source gives them in different places.

Assays:
Dopamine D2 = molecular target: T1, Dopamine D2 (Rattus norvegicus, UniProt P61169); assay: Dopamine D2 Binding Assay ([3H]Spiperone, corpus striatum membranes); parameters: species or system male Sprague-Dawley rats; details: [3H]Spiperone 0.1 nM, 37° C., 15 min
T1 construct: The corpus striatum was crudely dissected and frozen on dry ice; from tissue; host or cells: rat corpus striatum membranes (male Sprague-Dawley rats, Charles River)
T1 sequence (P61169 whole entry): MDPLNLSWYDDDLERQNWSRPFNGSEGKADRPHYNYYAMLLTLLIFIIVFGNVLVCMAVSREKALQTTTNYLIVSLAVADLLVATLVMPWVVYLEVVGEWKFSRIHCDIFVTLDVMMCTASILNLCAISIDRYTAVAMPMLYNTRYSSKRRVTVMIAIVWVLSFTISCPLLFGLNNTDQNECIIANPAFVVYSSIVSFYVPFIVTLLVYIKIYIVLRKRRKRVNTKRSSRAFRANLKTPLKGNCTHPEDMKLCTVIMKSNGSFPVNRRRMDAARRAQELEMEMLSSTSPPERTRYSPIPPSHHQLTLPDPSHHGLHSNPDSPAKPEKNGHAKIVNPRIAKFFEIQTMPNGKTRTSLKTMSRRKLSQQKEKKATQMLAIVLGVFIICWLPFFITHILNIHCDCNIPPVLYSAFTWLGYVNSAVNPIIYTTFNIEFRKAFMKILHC
Experimental: Activity at D2 sites is measured using the screening process set out in Example 67.
Dopamine D2 Binding Assay
Dopamine D2 affinity was determined according to the procedures of Burt, Creese and Snyder [Molecular Pharmacology 12,800 (1976); Science 196, 326 (1977); Science 192, 481 (1976)]. Briefly, male Sprague-Dawley rats (Charles River) were decapitated, brains rapidly removed and chilled in ice-cold 50 mM Hepes/KOH buffer (pH 7.4, 20° C.). The corpus striatum was crudely dissected and frozen on dry ice. Tissue was pooled and stored at -80° C. until use. On the day of assay, tissue was thawed in 20 ml ice-cold Hepes/KOH buffer, and homogenized with a polytron for 15 sec at 18,000 rpm. The homogenate was centrifuged (39,000×g, 10 min, at 4° C.). The supernatant was discarded and the pellet rehomogenized in ice-cold Hepes/KOH buffer and recentrifuged as described previously. The supernatant was again discarded and the pellet resuspended (1:100) in ice-cold Hepes/KOH buffer (pH 7.4, 20° C., containing 120 mM NaCl, 5 mM KCl, 1 mM MgCl2, 0.1% (w/v) ascorbic acid, and 10 μM pargylline, and stored on ice until assay. The binding assay (1 ml total volume) was performed in duplicate and initiated by the addition of 800 μl membrane homogenate to tubes containing 100 μl [^3 H]Spiperone (0.1 nM final concentration), and 100 μl competitor, buffer, or butaclamol, which was used to define the non-specific binding. The assay was incubated at 37° C. for 15 min, afterwhich the assay was terminated by rapid filtration.
In vitro IC50 test values for binding to the D2 receptor were determined for representative compounds of Formula I by the method of Burt, Creese, and Snyder, Molecular Pharmacology 12, 800 (1976); Creese, Burt, and Snyder, Science 196, 326 (1977); and Creese, Burt and Snyder, Science 192, 481 (1976). Test IC50 values greater than 1,000 nM are considered to reflect inactivity at the D2 receptor, indicating the risk of extrapyramidal side effects is small.

sigma receptor = molecular target: T2, sigma receptor (Cavia porcellus, UniProt Q60492); assay: Sigma binding (method of Tam and Cook)
T2 construct: from tissue
T2 sequence (Q60492 whole entry): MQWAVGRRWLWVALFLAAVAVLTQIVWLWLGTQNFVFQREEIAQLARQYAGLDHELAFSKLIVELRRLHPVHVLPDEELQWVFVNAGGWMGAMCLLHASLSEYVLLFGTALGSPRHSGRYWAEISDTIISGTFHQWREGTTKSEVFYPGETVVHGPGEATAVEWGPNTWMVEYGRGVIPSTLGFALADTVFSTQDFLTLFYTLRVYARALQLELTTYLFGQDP
Experimental: In vitro IC50 test values for binding to the sigma receptor were determined for representative compounds of Formula I by the method of Tam and Cook [see: Tam, S. W., and Cook, L: Proc. Natl. Acad. Sci. USA 81, 5618-5621 (1984)] with only minor modifications. Test IC50 values lower than 100 nM are considered to reflect activity at the sigma receptor.

brain ischemia = assay: Anoxic Nitrogen Test in Rats; assay type: in vivo, male Sprague-Dawley rats; details: Rattus norvegicus, sc, subcutaneously, 2 hr survival, read-out: Nitrogen Anoxia % Survival
Source text: Most specifically, administration of the compounds of Formula I results in protection against hypoxia-induced death in an anoxic nitrogen test in rats (Example 66). The test identifies the neuro-protective effects of substances against lethal brain damages produced by a lack of oxygen consumption (anoxia). In this test procedure, control animals exposed for one minute to a pure nitrogen atmosphere will expire because of respiratory failure caused by irreversible damage to the brain respiratory center.
Anoxic Nitrogen Test in Rats
The animals utilized are male Sprague-Dawley rats (200-400 grams) housed four animals per cage in a normal controlled environment with unlimited access to food and water. Usually there are 8 animals per dose, however, […] can be employed to obtain an initial impression of a compound's activity. Animals are parenterally or orally administered the vehicle or test compound 30 minutes before the anoxic insult. The anoxic episode consists of placing up to 8 animals in the sealed test chamber (10" l×10" w×6" h) continuously flushed with pure N2 (4.5 grade) at a flow rate of 5 SCFM for 1 min. Animals are then promptly removed to normal atmosphere and observed for the 2 hour period. Typically, animals become disoriented within 15 sec after which they remain motionless.
Even though the heart is still beating after the N2 exposure, all control animals fail to gasp when removed from the chamber and usually expire within 3 minutes. Drug treated animals, however, still gasp or start gasping after being removed, which is a good indication that the animals will survive the N2 exposure [see Wauquire, A., et al: Arch. Int. Pharmacodyn., 249, 330-334 (1981); Wauquier, A., et al: Drug Dev. Res., 8, 373-380 (1986)]. Results are recorded as:
(Number of animals surviving (2 hr))/(Number of animals tested)×100%
The anoxic nitrogen test is an in vivo model of brain ischemia in rats [see: Wauquire, A., et al: Arch. Int. Pharmacodyn., 249, 330-334 (1981); Wauquier, A., et al: Drug Dev. Res., 8, 373-380 (1986)]. Compounds of the present invention are active in this in vivo model of brain ischemia when given subcutaneously in the doses indicated in Table 2, thus providing additional evidence that the present compounds will be useful in the treatment of brain ischemia.

Structure (SMILES)	IC50 (Dopamine D2)	IC50 (sigma receptor)	responders at 40 mg/kg (brain ischemia)	responders at 20 mg/kg (brain ischemia; 20 & 40 mg/kg)	responders at 20 mg/kg (brain ischemia; 20 mg/kg)	responders at 10 mg/kg (brain ischemia)	responders at 15 mg/kg (brain ischemia; 15 & 20 mg/kg)
Fc1ccc([C@H]2CC[C@H](N3CCN(Cc4ccccc4)CC3)CC2)c2ccccc12 [Example 62-trans, Cis and trans 1-[4-(4-fluoro-1-naphthalenyl)-1-cyclohexyl]-4-(phenylmethyl)piperazine]	> 100 µM	3.3 nM	100%	–	–	–	–
Fc1ccc2[nH]cc(C3=CCC(N4CCC(Cc5ccccc5)CC4)CC3)c2c1 (stereo not drawn) [Example 51, 5-Fluoro-3-{4-[4-(phenylmethyl)-1-piperidinyl]-1-cyclohexen-1-yl]-1H-indole]	1 to 10 µM	11.1 nM	–	67%	–	–	–
Fc1ccc(CN2CCN(C3CC=C(c4ccc(C(F)(F)F)cc4)CC3)CC2)cc1 (stereo not drawn) [Example 42, 1-[(4-Fluorophenyl)methyl]-4-[4-[4-(trifluoromethyl)phenyl]-3-cyclohexen-1-yl]piperazine]	> 100 µM	6.9 nM	–	–	100%	–	–
Fc1ccc(C2=CCC(N3CCC(Cc4ccccc4)CC3)CC2)cc1 (stereo not drawn) [Example 47, 1-[4-(4-Fluorophenyl)-3-cyclohexen-1-yl]-4-(phenylmethyl)piperidine]	1 to 10 µM	4 nM	88%	–	–	–	–
Fc1ccc(F)c(CC2CCN(C3CC=C(c4ccc5c(c4)OCO5)CC3)CC2)c1 (stereo not drawn) [Example 54, 1-[4-(1,3-Benzodioxol-5-yl)-3-cyclohexen-1-yl]-4-[(2,5-difluorophenyl)methyl]piperidine]	1 to 10 µM	3.6 nM	–	–	–	38%	–
Fc1ccc(C2=CCC(N3CCN(Cc4ccncc4)CC3)CC2)cc1 (stereo not drawn) [Example 46, 1-[4-(4-Fluorophenyl)-3-cyclohexen-1-yl]-4-(4-pyridinylmethyl)piperazine]	50 to 100 µM	0.5 nM	–	–	83%	–	–
Fc1ccc(C2=CCC(N3CCN(Cc4ccccc4)CC3)CC2)cc1 (stereo not drawn) [Example 35, 1-[4-(4-Fluorophenyl)-3-cyclohexen-1-yl]-4-(phenylmethyl)-piperazine]	50 to 100 µM	1.9 nM	–	–	–	–	100%
Clc1ccc2[nH]cc(C3=CCC(N4CCN(Cc5ccccc5)CC4)CC3)c2c1 (stereo not drawn) [Example 50, 5-Chloro-3-{4-[4-(phenylmethyl)-1-piperazinyl]-1-cyclohexen-1-yl]-1H-indole]	10 to 50 µM	31.4 nM	–	–	100%	–	–
COc1ccc2[nH]cc(C3=CCC(N4CCN(Cc5ccccc5)CC4)CC3)c2c1 (stereo not drawn) [Example 48, 5-Methoxy-3-[4-[4-(phenylmethyl)-1-piperazinyl]-1-cyclohexen-1-yl]-1H-indole]	1 to 10 µM	6.2 nM	88%	–	–	–	–
COc1cccc(CN2CCN(C3CC=C(c4ccc(F)cc4)CC3)CC2)c1 (stereo not drawn) [Example 60, 1-[(4-Fluorophenyl)-3-cyclohexen-1-yl]-4-[(3-methoxyphenyl)methyl]piperazine]	1 to 10 µM	5.2 nM	–	–	–	50%	–
